The record followed here is patent US8877801B2, “Compounds and compositions as selective estrogen receptor degraders” (Novartis AG, priority 2013, dated 2014).

This assay addresses T1, ER (Homo sapiens, UniProt P03372).
T1 construct: transfected in MCF7 cells (containing endogenous ER); endogenous in cells; host or cells: MCF7 cells
T1 sequence (P03372 1-595): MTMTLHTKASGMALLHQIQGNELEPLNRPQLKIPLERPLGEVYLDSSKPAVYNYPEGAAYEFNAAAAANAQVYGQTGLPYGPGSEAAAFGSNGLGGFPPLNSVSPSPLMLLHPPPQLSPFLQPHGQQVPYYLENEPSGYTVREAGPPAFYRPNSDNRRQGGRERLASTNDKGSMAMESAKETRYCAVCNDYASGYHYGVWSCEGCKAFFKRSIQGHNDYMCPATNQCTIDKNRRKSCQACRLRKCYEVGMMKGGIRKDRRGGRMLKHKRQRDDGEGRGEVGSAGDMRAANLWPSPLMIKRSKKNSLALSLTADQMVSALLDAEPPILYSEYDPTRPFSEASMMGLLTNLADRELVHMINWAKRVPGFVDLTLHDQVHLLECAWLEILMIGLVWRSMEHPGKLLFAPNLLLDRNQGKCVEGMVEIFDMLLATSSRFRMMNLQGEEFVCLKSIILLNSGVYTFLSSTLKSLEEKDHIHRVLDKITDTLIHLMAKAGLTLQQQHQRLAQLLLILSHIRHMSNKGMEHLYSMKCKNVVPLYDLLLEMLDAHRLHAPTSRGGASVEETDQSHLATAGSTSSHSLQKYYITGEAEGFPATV
Description: ER transcription assay (MCF7 cells), ERE-luciferase reporter. The class given is cell-based. The note with it: MCF7 cells, ER reporter gene, 0.1 nM 17β estradiol, 24 hours; read-out: MCF7 IC50 (inflection point of the inhibition of transcription in MCF7 cells). The text has this: ER Transcription Assay (MCF7 Cells)
The ER transcription assay is a reporter assay that is based on the ability of ER to induce transcription from a luciferase reporter gene containing estrogen response elements (EREs) in the promoter/enhancer region. When the reporter gene is transfected in MCF7 cells (containing endogenous ER), transcription is reflected by the level of luciferase expression.
A day before transfection, cells are split into a T75 flask at a cell density of 300,000 cells/mL (10 mL total) and allowed to attach overnight in a humidified CO2 incubator at 37° C.
Approximately 20 ug DNA is mixed in OptiMEM (Invitrogen) to a total volume of 650 μL. Following incubation, the OptiMEM-DNA mixture is added to the OptiMEM-Lipofectin mix and incubated for 15 minutes at 37° C. The DNA-Lipofectin mixture is then added directly to the T75 flask and the flask is returned to the incubator.
After overnight incubation, compound is added to individual wells of a 96-well plate in a 10 μL volume of media at 10× concentration along with 17β estradiol whose final concentration is 0.1 nM. Normally, DMSO (used as a vehicle) is included to achieve a final concentration of 0.1% when added to the cells. Transfected cells are trypsinized, resuspended in DMEM/F12/10% charcoal-stripped serum and added to the 96-well plate at 25,000 cells/well in 90 μL of media. The plate is then returned to the incubator for 24 hours.
After incubation with compounds for 24 hours, Firefly and Renilla luciferase activities are measured to determine ER transcriptional activity. Media is removed from 96-well plates by decanting and blotting on paper towels.
One second total read time after a one second delay.
One second total read time after one second delay. If Firefly luciferase signal is high, Renilla assay must be done an hour after the Firefly assay due to incomplete squelching of Firefly signal.
The data describing the antagonist and degradation properties for the examples is compiled in table 10. The column titled MCF7 IC50 reports the inflection point of the inhibition of transcription in MCF7 cells as described above. Percentage ERα remaining reports the remaining ERα protein measured at 10 μM concentration of the ligand as described above. The column ERα IC50 reports the inflection point of the degradation in response to the ligand concentration.
(A reporter such as luciferase makes a cellular process visible.)
`Cc1cc(F)ccc1-c1sc2cc(O)ccc2c1Oc1ccc(/C=C/C(=O)NO)cc1` [Example 32, (E)-3-(4-((2-(4-fluoro-2-methylphenyl)-6-hydroxybenzo[b]thiophen-3-yl)oxy)phenyl)-N-hydroxyacrylamide]: the 50% inhibitory concentration (IC50) is 0.015 µM. The value for `O=C(/C=C/c1ccc(Oc2c(-c3ccc(F)cc3)sc3cc(O)ccc23)cc1)NCCC(F)(F)F` [Example 33, (E)-3-(4-((2-(4-fluorophenyl)-6-hydroxybenzo[b]-thiophen-3-yl)oxy)phenyl)-N-(3,3,3-trifluoropropyl)-acrylamide] was 0.073 µM; that for `CCOC(=O)/C=C/c1ccc(Oc2c(-c3ccc(O)cc3)sc3cc(O)ccc23)cc1C` [Example 34, (E)-ethyl 3-(4-((6-hydroxy-2-(4-hydroxyphenyl)benzo[b]-thiophen-3-yl)oxy)-2-methylphenyl)acrylate] was 0.048 µM. The figure for `CCOC(=O)/C=C/c1ccc(Oc2c(-c3ccc(O)cc3)sc3cc(O)ccc23)c(C)c1` [Example 35, (E)-ethyl 3-(4-((6-hydroxy-2-(4-hydroxyphenyl)benzo[b]-thiophen-3-yl)oxy)-3-methylphenyl)acrylate] is 0.103 µM; for `COC(=O)/C=C/c1ccc(Oc2c(-c3ccc(F)cc3)sc3cc(O)ccc23)cc1` [Example 36, (E)-methyl 3-(4-((2-(4-fluorophenyl)-6-hydroxybenzo[b]thiophen-3-yl)oxy)phenyl)-acrylate] it is 0.137 µM. The figure for `COC(=O)/C=C/c1ccc(Oc2c(-c3ccc(O)cc3)sc3c(F)c(O)c(F)cc23)cc1` [Example 37, (E)-methyl 3-(4-((5,7-difluoro-6-hydroxy-2-(4-hydroxyphenyl)-benzo[b]thiophen-3-yl)oxy)phenyl)acrylate] is 0.041 µM; for `O=C(O)/C=C/c1ccc(Oc2c(-c3ccc(O)cc3)sc3c(F)c(O)c(F)cc23)cc1` [Example 38, (E)-3-(4-((5,7-difluoro-6-hydroxy-2-(4-hydroxyphenyl)benzo[b]-thiophen-3-yl)oxy)phenyl)acrylic acid] it is 0.152 µM; for `O=C(O)/C=C/c1ccc(Oc2c(-c3ccc(O)cc3)sc3c(F)c(O)ccc23)cc1` [Example 39, (E)-3-(4-((7-fluoro-6-hydroxy-2-(4-hydroxyphenyl)benzo[b]-thiophen-3-yl)oxy)phenyl)acrylic acid] it is 0.653 µM. On to `O=C(O)/C=C/c1ccc(Oc2c(-c3ccc(O)c(F)c3)sc3cc(O)ccc23)cc1` [Example 40, (E)-3-(4-((2-(3-fluoro-4-hydroxyphenyl)-6-hydroxybenzo[b]thiophen-3-yl)oxy)phenyl)acrylic acid], for which the 50% inhibitory concentration (IC50) was found to be 0.424 µM. The figure for `Cc1nnc(/C=C/c2ccc(Oc3c(-c4ccc(F)cc4C)sc4cc(O)ccc34)cc2)o1` [Example 46, (E)-2-(4-fluoro-2-methylphenyl)-3-(4-(2-(5-methyl-1,3,4-oxadiazol-2-yl)vinyl)phenoxy)benzo[b]thiophen-6-ol] is 0.108 µM; for `CCCc1nnc(/C=C/c2ccc(Oc3c(-c4ccc(F)cc4C)sc4cc(O)ccc34)cc2)o1` [Example 47, (E)-2-(4-fluoro-2-methylphenyl)-3-(4-(2-(5-propyl-1,3,4-oxadiazol-2-yl)vinyl)phenoxy)benzo [b]thiophen-6-ol] it is 0.111 µM. The value for `Cc1cc(F)ccc1-c1sc2cc(O)ccc2c1Oc1ccc(/C=C/c2n[nH]c(=O)o2)cc1` [Example 48, (E)-5-(4-((2-(4-fluoro-2-methylphenyl)-6-hydroxybenzo[b]thiophen-3-yl)oxy)styryl)-1,3,4-oxadiazol-2(3H)-one] was 0.422 µM; that for `Cc1nnc(/C=C/c2ccc(Oc3c(-c4ccc(F)cc4C)sc4cc(O)ccc34)cc2)[nH]1` [Example 49, (E)-2-(4-fluoro-2-methylphenyl)-3-(4-(2-(5-methyl-4H-1,2,4-triazol-3-yl)vinyl)phenoxy)benzo[b]thiophen-6-ol] was 0.041 µM.

A word on the IC50: it is the concentration that inhibits the measured activity by half.
